System: Trioza erytreae
Assay type: in vivo

## CC1(S(=O)(=O)[O-])CC(=O)c2ccccc2C1=O.[Na+] (centres unmarked) [MSB, menadione sodium bisulphite]
Plot A 2000 trees, Plot B 300 trees, Plot C 100 trees, end of the summer of 2010
  trees that showed leaves with the typical symptoms of the Trioza erytreae attack: None
Citrus trees, foliar treatment once a month with 80 ppm of MSB in aqueous solution from February 2010, assessed at the end of the summer of 2010
  control of the Trioza erytreae attacks: 100%
